From patent US7087648B1, “Methods for modulating macrophage proliferation using polyamine analogs” (The Regents of the University of California, priority 1997, dated 2006)

How the values were obtained:
[1] = system: human brain tumor cell lines; settings: cited from earlier work
[2] = system: CD14^+/PCNA^+ peripheral blood macrophage; test: In vitro CD14/PCNA staining (FACSCAN) of PBMC from AIDS dementia patients cultured five days with agent; format: cell-based, human; settings: for inhibition and/or killing of blood PCNA^+/CD14^+ cells: summary of the data shown; for effect on macrophage proliferation: blood of one patient with AIDS dementia, Table 2; for CD14^+, PCNA^+ / TOTAL CD14/PCNA: one patient with AIDS dementia; for CD14^+, PCNA^+: 0 drug: 64/5000; for TOTAL CD14/PCNA: 0 drug: 388; for CD14^+/PCNA^+ / CD14^+/PCNA^− / total CD14: HIV dementia patient five; for CD14^+/PCNA^+: 0 drug: 74; for CD14^+/PCNA^−: 0 drug: 472; for total CD14: 0 drug: 546
Method: We had previously separated peripheral blood monocytes on Ficoll. […] We then used Percoll gradient separation, which allows for denser cells to be captured. A two-step gradient was prepared in 15 mL conical tubes: bottom layer of 1.087 density Percoll, overlaid with 1.077 density. 1.5 mL whole heparinised blood was mixed with an equal volume of isotonic saline. This blood/saline was layered over the gradient and centrifuged. Cells from the 1.077 and 1.087 interfaces were collected, combined, and washed in 5 volumes of RPMI 1640. […] All further experiments were performed using 1.087 gradient.
Five×10^5 PBMC's isolated through a 1.087 g/cc Percoll/saline gradient were exposed to varied concentrations of agent after baseline CD14/PCNA staining was performed. The cells were cultured at 5×10^5 cells in RPM1-1640/10% fetal calf serum in a polypropylene tube (Falcon) at 37° C. for five days. After five days CD14/PCNA staining was performed on control and agent-treated cultures. FACSCAN analysis of PCNA-positive cells in control cultures was compared with agent-treated cultures and the percentage of control PCNA/CD14 cells was calculated. The results of such an experiment in which the effect of polyamine analog DEHOP (SunPharm; Florida) on proliferating macrophages (as detected by PCNA) from the blood of four patients with AIDS dementia are shown in FIG. 1A (with underlying data provided in Table 3). […] A comparison of the inhibitory effect of DEHOP and cyclosphosphamide, another anti-proliferative agent, was performed in vitro using the blood of one of these patients (“CB”).

[3] = system: CD14^+/PCNA^+ peripheral blood macrophage; test: as above; format: cell-based, human; settings: one patient with AIDS dementia, 0 drug: 35/5000
[4] = system: PCNA/CD14 cells; test: PCNA expression of peripheral macrophages (CD14 cells) from patients with AD, five days culture with agent; format: cell-based, human; settings: FIG. 3
Method: We had previously separated peripheral blood monocytes on Ficoll. […] We then used Percoll gradient separation, which allows for denser cells to be captured. A two-step gradient was prepared in 15 mL conical tubes: bottom layer of 1.087 density Percoll, overlaid with 1.077 density. 1.5 mL whole heparinised blood was mixed with an equal volume of isotonic saline. This blood/saline was layered over the gradient and centrifuged. Cells from the 1.077 and 1.087 interfaces were collected combined, and washed in 5 volumes of RPMI 1640.
Five×10^5 PBMC's isolated through a 1.087 g/cc Percoll/saline gradient were exposed to varied concentrations of agent after baseline CD14/PCNA staining was performed as described in Example 3. The cells were cultured at 5×1O^5 cells in RPM1-1640/10% fetal calf serum in a polypropylene tube (Falcon) at 37° C. for five days. After five days CDI 14/PCNA staining was performed on control and agent-treated cultures. FACSCAN analysis of PCNA-positive cells in control cultures was compared with agent-treated cultures and percentage of control PCNA/CD14 cells was calculated. Two polyamine analogs, DENOP (SunPharm; Florida) and SL-11037 were tested.

[5] = system: PCNA^+ macrophage; test: Inhibition of PCNA^+ macrophage detection, peripheral blood of HIV^+ sarcoid patient; format: cell-based, human; settings: 60% of input CD14 cells PCNA^+, 96 hr after drug exposure and culture, FIG. 5
Method: Five×10^5 PBMC's isolated through a 1.087 g/cc Percoll/saline gradient were exposed to varied concentrations of agent after baseline CD14/PCNA staining was performed. […] FACSCAN analysis of PCNA-positive cells in control cultures was compared with agent-treated cultures and the percentage of control PCNA/CD14 cells was calculated.

[6] = system: spermidine-spermine N1-acetyltransferase (SSAT); settings: human melanoma cells; cited from earlier work

| SMILES | inhibition and/or killing of blood PCNA^+/CD14^+ cells [2] | effect on macrophage proliferation [2] | CD14^+, PCNA^+ ([2]; 2 μM) | TOTAL CD14/PCNA ([2]; 2 μM) | CD14^+, PCNA^+ ([2]; 10 μM) | TOTAL CD14/PCNA ([2]; 10 μM) | CD14^+, PCNA^+ ([2]; 50 μM) | TOTAL CD14/PCNA ([2]; 50 μM) | CD14^+, CD69^+ ([3]; 2 μM) | CD14^+, CD69^+ ([3]; 10 μM) | CD14^+, CD69^+ ([3]; 50 μM) | further results |
| --- | --- | --- | --- | --- | --- | --- | --- | --- | --- | --- | --- | --- |
| CCNCCCCNCCCCNCCCCNCCCCNCC [BE-4444, 1,19-bis(ethylamino)-5,10,15-triazanonadecane] | potent inhibition and/or killing |  |  |  |  |  |  |  |  |  |  | growth, survival, and cell cycle progression [1]: directly affects growth, survival, and cell cycle progression; killing of PCNA^+/CD14^+ cells ([2]; FIG. 1B): potent killing |
| CCNCCCNC[C@@H]1CC[C@H]1CNCCCNCC.Cl.Cl.Cl.Cl (relative stereo) [SL-11038, N-ethyl-N′-(2-(3′-ethylamino-propylaminomethyl)-trans-cyclobutylmethyl)-propane 1; 3-diamine tetrahydrochloride] | potent inhibition and/or killing | showed inhibitory effects | 104/ NO. OF CELLS/5,000 | 356 NO. OF CELLS/5,000 | 36/ NO. OF CELLS/5,000 | 205 NO. OF CELLS/5,000 | 24/ NO. OF CELLS/5,000 | 104 NO. OF CELLS/5,000 | 32/ NO. OF CELLS/5,000 | 32/ NO. OF CELLS/5,000 | 26/ NO. OF CELLS/5,000 |  |
| CCNCCCNCCCNCCCNCC [DENOP, diethyl-norspermine] | potent inhibition and/or killing | showed inhibitory effects | 34/ NO. OF CELLS/5,000 | 149 NO. OF CELLS/5,000 | 23/ NO. OF CELLS/5,000 | 50 NO. OF CELLS/5,000 | 19/ NO. OF CELLS/5,000 | 43 NO. OF CELLS/5,000 | 32/ NO. OF CELLS/5,000 | 23/ NO. OF CELLS/5,000 | 32/ NO. OF CELLS/5,000 | percentage of proliferating macrophages (PCNA/CD14 cells) [4]: significantly reduced the percentage of proliferating macrophages |
| CCNCCCNC/C=C\CNCCCNCC.Cl.Cl.Cl.Cl [SL-11047, N,N′-bis(3-ethylaminopropyl)-cis-but-2-ene-1,4-diamine tetrahydrochloride] | potent inhibition and/or killing |  |  |  |  |  |  |  |  |  |  | inhibition of PCNA^+ macrophage detection [5]: potent inhibitors; PCNA^+/CD14 cell survival ([2]; FIG. 6, averages of several (N) experiments): decrease |
| CCNCCCNCCCNCCCNCC [DENSPM, 1,1 1-diethylnorspermine] |  |  |  |  |  |  |  |  |  |  |  | increase in immunodetectable SSAT protein [6]: 300 fold; increase of SSAT mRNA levels [6]: up to 20 fold |
| NCCCNCCCCNCCCN [spermine] |  |  |  |  |  |  |  |  |  |  |  | increase in immunodetectable SSAT protein [6]: ~7 fold; increase of SSAT mRNA levels [6]: ~3 fold |
| CCNCCCNC[C@@H]1C[C@@H]1CNCCCNCC.Cl.Cl.Cl.Cl [SL-11037, N-ethyl-N′-(2-(3′-ethylamino-propylaminomethyl)-cis-cyclopropylmethyl)-propane 1,3-diamine tetrahydrochloride] | potent inhibition and/or killing | showed inhibitory effects | 49/ NO. OF CELLS/5,000 | 276 NO. OF CELLS/5,000 | 32/ NO. OF CELLS/5,000 | 116 NO. OF CELLS/5,000 | 11/ NO. OF CELLS/5,000 | 79 NO. OF CELLS/5,000 | 46/ NO. OF CELLS/5,000 | 49/ NO. OF CELLS/5,000 | 33/ NO. OF CELLS/5,000 | percentage of proliferating macrophages (PCNA/CD14 cells) [4]: significantly reduced the percentage of proliferating macrophages |
| O=P1(N(CCCl)CCCl)NCCCO1 (stereo not drawn) [Cyclophosphamide, reference compound] |  |  |  |  |  |  |  |  |  |  |  | CD14^+/PCNA^+ ([2]; 5 μg/ml): 70 #cells/10,000 PBMC; CD14^+/PCNA^− ([2]; 5 μg/ml): 272 #cells/10,000 PBMC; total CD14 ([2]; 5 μg/ml): 342 #cells/10,000 PBMC; CD14^+/PCNA^+ ([2]; 0.005 (μg/ml)): 71 #cells/10,000 PBMC; CD14^+/PCNA^− ([2]; 0.005 (μg/ml)): 295 #cells/10,000 PBMC; total CD14 ([2]; 0.005 (μg/ml)): 366 #cells/10,000 PBMC; CD14^+/PCNA^+ ([2]; 0.05 (μg/ml)): 99 #cells/10,000 PBMC; CD14^+/PCNA^− ([2]; 0.05 (μg/ml)): 455 #cells/10,000 PBMC; total CD14 ([2]; 0.05 (μg/ml)): 554 #cells/10,000 PBMC; CD14^+/PCNA^+ ([2]; 0.5 (μg/ml)): 49 #cells/10,000 PBMC; CD14^+/PCNA^− ([2]; 0.5 (μg/ml)): 390 #cells/10,000 PBMC; total CD14 ([2]; 0.5 (μg/ml)): 439 #cells/10,000 PBMC; in vitro toxicity in this assay system ([2]; blood of patient five): lack of in vitro toxicity |
| CCNCCCNC[C@@H]1C[C@H]1CNCCCNCC.Cl.Cl.Cl.Cl (relative stereo) [SL-11044, N-ethyl-N′-(2-(3′-ethylamino-propylaminomethyl)-trans-cyclopropylmethyl)-propane 1,3-diamine tetrahydrochloride] | potent inhibition and/or killing |  |  |  |  |  |  |  |  |  |  | inhibition of PCNA^+ macrophage detection [5]: potent inhibitors |
